# Test results published in patent US10160705B2, “Class of HDAC inhibitors expands the renal progenitor cells population and improves the rate of recovery from acute kidney injury” (University of Pittsburgh—Of the Commonwealth System of …, priority 2011, dated 2018).
# Tests used:
# [1] = test system: RA-responsive genes, cyp26a1 and cmlc2; assay: In situ hybridization for RA-responsive genes cyp26a1 and cmlc2 in 18-somite embryos; format: in vivo, zebrafish; conditions: 3 μM
# Method: In situ hybridization and immunocytochemistry: In situ hybridization was performed as previously described with some modifications.142 Hybridization temperature was 65° C. Embryos were blocked in 2% blocking reagent (Roche) with 5% sheep serum in MAB (100 mM maleic acid and 150 mM NaCl [pH 7.5]). Whole-mount immunocytochemistry with 1:25 mouse anti-α6F antibody (Developmental Studies Hybridoma Bank) and 1:100 Cy3 secondary antibody (Jackson ImmunoResearch) was performed as described previously.108 Embryos were embedded in JB-4 for sectioning per the manufacturer's instructions (Polysciences), sectioned at 5 μm, and mounted with Cytoseal 60 (Richard-Allan Scientific).
# HDACis are believed to lower the threshold of RA necessary to activate transcription. If PTBA treatment facilitates activation of the RA pathway, then expression of genes responsive to RA signaling should change. […] In a previous study, cmlc2 expression was assessed for RAdependent effects in 18-somite embryos (Keegan, B. R., Feldman, J. L., Begemann, G., Ingham, P. W. & Yelon, D. Retinoic acid signaling restricts the cardiac progenitor pool. Science 307, 247-249, (2005)), therefore embryos were collected at the 18-somite stage for continuity. […]
# lhx1a, pax2a, pax8, ntla = assay: Relative qPCR in the trunk region of 10-somite embryos; format: in vivo, zebrafish; conditions: 3 μM
# Method: Several of the genes analyzed by qPCR, including lhx1a and pax2a, show expression in anterior regions of the embryo as well as the IM. To focus more specifically on effects in the IM, cDNA samples taken from the trunks of treated and control embryos were examined. Samples for trunk RNA extraction were prepared by cutting embryos just above the first somite with microscissors and discarding the anterior portion. The trunk portions were homogenized with a plastic microcentrifuge pestle in 500 μL of TRI reagent (Ambion), and RNA was isolated using an RNeasy Micro Kit (QIAGEN) per the manufacturer's instructions. 1 μg RNA was heated to 75° C. for 5 min and then placed on ice. […]
# Primer sets were designed using NetPrimer and Beacon Designer (ver. 7.51) primer analysis software (PREMIER Biosoft). […] Primer melting temperatures were maintained between 60° C. and 64° C. as determined by NetPrimer. […] The reference gene primer sets have been previously described (Tang, R., Dodd, A., Lai, D., McNabb, W. C. & Love, D. R. Validation of zebrafish (Danio rerio) reference genes for quantitative real-time RT-PCR normalization. Acta Biochim Biophys Sin (Shanghai) 39, 384-390, (2007)) with one modification. […]
# Relative gene expression was calculated using iQ5 software (ver. 2.0, Bio-Rad) to determine normalized expression levels (ΔΔCt method). […]
smiles,measurement,setting,value
"O=C(O)CCCSc1ccccc1 [UPHD-00020, 4-(phenylthio)butanoic acid (PTBA)]","cmlc2 expression decreased, percent of treated embryos",[1],100%
same,"cyp26a1 expression increased, percent of treated embryos",[1],100%
same,increase in pax2a expression by qPCR,"lhx1a, pax2a, pax8, ntla",almost two-fold increase
same,increase in relative lhx1a transcript by qPCR,"lhx1a, pax2a, pax8, ntla",three-fold increase
